Results reported in ChEMBL document CHEMBL6120941, “Discovery of SIRT1-Activating Hydrogen Sulfide Donating Derivatives for Efficient Resistant of Myocardial Ischemic Injury” (J Med Chem, 2024).
Active and inactive are the calls of the source. The calls are words filed in the database; no cut-off is given here.

Experiments:
H9c2 [1] = test: Cardioprotective activity against CoCl2-induced cellular hypoxia injury in rat H9c2 cells assessed as cell viability at 0.625 uM incubated for 24 hrs by CCK-8 assay (reference value: 51.80 +/- 2.58 %); format: functional; conditions: read-out: Activity
H9c2 [2] = test: Cardioprotective activity against CoCl2-induced cellular hypoxia injury in rat H9c2 cells assessed as cell viability at 1.25 uM incubated for 24 hrs by CCK-8 assay (reference value: 51.80 +/- 2.58 %); format: functional; conditions: read-out: Activity
H9c2 [3] = test: Cardioprotective activity against CoCl2-induced cellular hypoxia injury in rat H9c2 cells assessed as cell viability at 2.5 uM incubated for 24 hrs by CCK-8 assay (reference value: 51.80 +/- 2.58 %); format: functional; conditions: read-out: Activity
H9c2 [4] = test: Cardioprotective activity against CoCl2-induced cellular hypoxia injury in rat H9c2 cells assessed as cell viability at 10 uM incubated for 24 hrs by CCK-8 assay (reference value: 51.80 +/- 2.58 %); format: functional; conditions: read-out: Activity
[5] = Induction of H2S release in PBS at pH 7.4 measured upto 60 mins by methylene blue method; format: functional
H9c2 [6] = test: Induction of H2S release in rat H9c2 cells incubated for 24 hrs by AzMC probe based analysis; format: functional, cell-based; conditions: dose 1.25-10 µM
[7] = Toxicity in myocardial ischemia Sprague-Dawley rat model assessed as change in body weight at 10 to 30 mg/kg, IG treated for 7 days consecutively followed by ISO administration daily for 2 days consecutively; format: organism-based; conditions: in vivo, po, 216 h, dose 10-30 mg/kg, time 9 day
Rattus norvegicus [8] = test: Cardioprotective activity in myocardial ischemia Sprague-Dawley rat model assessed as decrease in ISO-induced ST segment at 10 to 30 mg/kg, IG treated for 7 days consecutively followed by ISO administration daily for 2 days consecutively by ECG analysis; format: functional, organism-based; conditions: dose 10-30 mg/kg, time 9.0 day
Rattus norvegicus [9] = test: Cardioprotective activity in myocardial ischemia Sprague-Dawley rat model assessed as myocardial infarction area at 10 mg/kg, IG treated for 7 days consecutively followed by ISO administration daily for 2 days consecutively by TTC staining based analysis (reference value: 32.65 %); format: functional; conditions: time 9 day
Rattus norvegicus [10] = test: Cardioprotective activity in myocardial ischemia Sprague-Dawley rat model assessed as improvement in tissue clearance at 10 to 30 mg/kg, IG treated for 7 days consecutively followed by ISO administration daily for 2 days consecutively by H and E/Masson staining based analysis; format: functional, organism-based; conditions: dose 10-30 mg/kg, time 9.0 day
Rattus norvegicus [11] = test: Cardioprotective activity in myocardial ischemia Sprague-Dawley rat model assessed as improvement in cell volume size at 10 to 30 mg/kg, IG treated for 7 days consecutively followed by ISO administration daily for 2 days consecutively by H and E/Masson staining based analysis; format: functional, organism-based; conditions: dose 10-30 mg/kg, time 9.0 day
Rattus norvegicus [12] = test: Cardioprotective activity in myocardial ischemia Sprague-Dawley rat model assessed as improvement in positional rearrangement at 10 to 30 mg/kg, IG treated for 7 days consecutively followed by ISO administration daily for 2 days consecutively by H and E/Masson staining based analysis; format: functional, organism-based; conditions: dose 10-30 mg/kg, time 9.0 day
Rattus norvegicus [13] = test: Cardioprotective activity in myocardial ischemia Sprague-Dawley rat model assessed as decrease in myocardial injury administered intragastrically for 7 days consecutively followed by ISO administration daily for 2 days consecutively by H and E/Masson staining based analysis; format: functional, organism-based; conditions: dose 10-30 mg/kg, route ig, time 9.0 day
H9c2 [14] = test: Cardioprotective activity against CoCl2-induced cellular hypoxia injury in rat H9c2 cells assessed as ROS accumulation at 10 uM incubated for 24 hrs by DCFH-DA probe based analysis (reference value: 28.03 %); format: functional
[15] = Induction of H2S […] activity in presence of GSSH; format: functional
H9c2 [16] = test: Cardioprotective activity against CoCl2-induced cellular hypoxia injury in rat H9c2 cells assessed as mitochondrial membrane potential at 10 uM incubated for 24 hrs by JC-1 staining based analysis (reference value: 48.08 %); format: functional
H9c2 [17] = test: Cardioprotective activity against CoCl2-induced cellular hypoxia injury in rat H9c2 cells assessed as rate of necrosis at 10 uM incubated for 24 hrs in presence of GSSG by flow cytometry (reference value: 22.5 %); format: functional
H9c2 [18] = test: Cardioprotective activity against CoCl2-induced cellular hypoxia injury in rat H9c2 cells assessed as reduction in hypoxia-induced apoptosis at 5 to 10 uM incubated for 24 hrs by Hoechst 33258 nuclear staining based analysis; format: functional, cell-based; conditions: dose 5-10 µM
H9c2 [19] = test: Cardioprotective activity against CoCl2-induced cellular hypoxia injury in rat H9c2 cells assessed as improvement in nuclear shrinkage at 5 to 10 uM incubated for 24 hrs by Hoechst 33258 nuclear staining based analysis; format: functional, cell-based; conditions: dose 5-10 µM
H9c2 [20] = test: Cardioprotective activity against CoCl2-induced cellular hypoxia injury in rat H9c2 cells assessed as inhibition of ROS-induced cell damage at 5 to 10 uM incubated for 24 hrs by fluorescence based analysis; format: functional; conditions: dose 5-10 µM
H9c2 [21] = test: Cardioprotective activity against CoCl2-induced cellular hypoxia injury in rat H9c2 cells assessed as inhibition of CoCl2-induced morphological changes at 5 to 10 uM incubated for 24 hrs by fluorescence based analysis; format: functional, cell-based; conditions: dose 5-10 µM
H9c2 [22] = test: Antioxidant activity against CoCl2-induced cellular hypoxia injury in rat H9c2 cells assessed as decrease in hypoxia-induced MDA level at 5 to 10 uM incubated for 24 hrs; format: functional, cell-based; conditions: dose 5-10 µM
H9c2 [23] = test: Antioxidant activity against CoCl2-induced cellular hypoxia injury in rat H9c2 cells assessed as decrease in hypoxia-induced CK level at 5 to 10 uM incubated for 24 hrs; format: functional, cell-based; conditions: dose 5-10 µM
H9c2 [24] = test: Antioxidant activity against CoCl2-induced cellular hypoxia injury in rat H9c2 cells assessed as increase in hypoxia-reduced SOD level at 5 to 10 uM incubated for 24 hrs; format: functional, cell-based; conditions: dose 5-10 µM
H9c2 [25] = test: Antioxidant activity against CoCl2-induced cellular hypoxia injury in rat H9c2 cells assessed as increase in hypoxia-reduced GSH level at 5 to 10 uM incubated for 24 hrs; format: functional, cell-based; conditions: dose 5-10 µM
H9c2 [26] = test: Upregulation of SIRT1 mRNA level in CoCl2-induced cellular hypoxia injury in rat H9c2 cells at 5 to 10 uM incubated for 24 hrs by qPCR analysis; format: functional, cell-based; conditions: dose 5-10 µM
Rattus norvegicus [27] = test: Cardioprotective activity against myocardial ischemia Sprague-Dawley rat model assessed as increase in PGC1-alpha level in myocardial tissue at 10 to 30 mg/kg, IG treated for 7 days consecutively followed by ISO administration daily for 2 days consecutively by Western blot analysis; format: functional, organism-based; conditions: dose 10-30 mg/kg, time 9.0 day

C=CCSSCCC(=O)O[C@H]1CC[C@]2(C)[C@H]3C[C@@H](O)[C@@H]4[C@@H]([C@]5(C)CC[C@@H](C(C)(C)O)O5)CC[C@@]4(C)[C@]3(C)CC[C@H]2C1(C)C
viability at 0.625 µM (H9c2 [1]): 76.5% | viability at 1.25 µM (H9c2 [2]): 85.7% | viability at 2.5 µM (H9c2 [3]): 87.8% | viability at 10 µM (H9c2 [4]): 97.9% | Activity [5]: 30.7 µM | Activity (H9c2 [6]): Dose-dependent-effect; Exhibited Highest Release Efficiency Among Tested Compounds | Activity [7]: Non-toxic | Activity (Rattus norvegicus [8]): Active | Activity (Rattus norvegicus [9]): 12.68% | Activity (Rattus norvegicus [10]): Active | Activity (Rattus norvegicus [11]): Active | Activity (Rattus norvegicus [12]): Active | Activity (Rattus norvegicus [13]): Dose-dependent-effect | Activity (H9c2 [14]): 4.74% | Activity [15]: 18.6% | Activity (H9c2 [16]): 92.84% | Activity (H9c2 [17]): 7.54% | Activity (H9c2 [18]): Active | Activity (H9c2 [19]): Active | inhibition (H9c2 [20]): Active | inhibition (H9c2 [21]): Active | Activity (H9c2 [22]): Active | Activity (H9c2 [23]): Active | Activity (H9c2 [24]): Active | Activity (H9c2 [25]): Active | Activity (H9c2 [26]): Active | Activity (Rattus norvegicus [27]): Active
